The text below walks through data of US7820623B2 (priority 2006, dated 2010).

For assay [1], the system named is thapsigargin-induced IFN-g production in human whole blood. Type of assay: cell-based.
Assay [2] deals with thapsigargin-induced IL-2 production in human whole blood.
[3] abbreviates: read-out: Analogue Activity (IC50) WB/IFNg.
The mark [4] stands for this setting: read-out: Analogue Activity (IC50) WB/IL-2.

Where two headings read alike, the source gives them in different places. Bridge positions count the residues as written; N and C are the ends. Square brackets hold non-standard residues; d marks the D form. Ends that are not written are not given here. Peptide text beside a SMILES is read from it. 1Nal = N[C@@H](Cc1cccc2ccccc12)C(=O)O

In the case of “GVIINVKCKISRACLEPCKKAGMRFGKCMNGKCHCTPK [Ala-13 (SEQ ID No: 1411)]”, the IC50 was 133 pM in assay [1] (read-out: Average IC50 IFNg) and 148 pM in assay [2] (read-out: Average IC50 IL-2).

`CC[C@H](C)[C@@H]1NC(=O)[C@H](CCCCN)NC(=O)[C@@H](NC(=O)[C@H](CCCCN)NC(=O)[C@@H](NC(=O)[C@H](CCCNC(=N)N)NC(=O)[C@@H](NC(=O)[C@@H](NC(=O)[C@@H](NC(=O)CN)C(C)C)[C@@H](C)CC)[C@@H](C)CC)C(C)C)CSSC[C@@H]2NC(=O)[C@H](CCCCN)NC(=O)CNC(=O)[C@H](Cc3ccccc3)NC(=O)[C@H](CCCNC(=N)N)NC(=O)[C@H](CCSC)NC(=O)CNC(=O)[C@H](C)NC(=O)[C@H](CCCCN)NC(=O)[C@H](CCCCN)NC(=O)[C@@H]3CSSC[C@@H](C(=O)N[C@H](C(=O)N4CCC[C@H]4C(=O)N[C@@H](CCCCN)C(=O)O)[C@@H](C)O)NC(=O)[C@H](Cc4c[nH]cn4)NC(=O)[C@H](CSSC[C@H](NC(=O)[C@H](CCC(N)=O)NC(=O)[C@H](CCCNC(=N)N)NC(=O)[C@H](CO)NC1=O)C(=O)N[C@@H](CC(C)C)C(=O)N[C@@H](CCC(=O)O)C(=O)N1CCC[C@H]1C(=O)N3)NC(=O)[C@H](CCCCN)NC(=O)CNC(=O)[C@H](CC(N)=O)NC(=O)[C@H](CCSC)NC2=O` [N5R] (H-GVIIRVKCKISRQCLEPCKKAGMRFGKCMNGKCHCTPK-OH; disulfide 8-28, 14-33, 18-35): the IC50 in assay [1] (setting [3]) stood at 120 pM; in assay [2] (setting [4]) it was 95 pM.

“des1-7, E16K, K20D, des36-38 (CKISRQCLKPCKDAGMRFGKCMNGKCHC-NH2; ends and bridges not checked)”: the figures for the IC50 in assay [1] (read-out: WB/IFNg (IC50)) and in assay [2] (read-out: WB/IL-2 (IC50)) were 8340 pM and 8180 pM, respectively.

As to `CC[C@H](C)[C@@H]1NC(=O)[C@H](C)NC(=O)[C@@H](NC(=O)[C@H](CCCCN)NC(=O)[C@@H](NC(=O)[C@H](CC(N)=O)NC(=O)[C@@H](NC(=O)[C@@H](NC(=O)[C@@H](NC(=O)CN)C(C)C)[C@@H](C)CC)[C@@H](C)CC)C(C)C)CSSC[C@@H]2NC(=O)[C@H](CCCCN)NC(=O)CNC(=O)[C@H](Cc3ccccc3)NC(=O)[C@H](CCCNC(=N)N)NC(=O)[C@H](CCSC)NC(=O)CNC(=O)[C@H](C)NC(=O)[C@H](CCCCN)NC(=O)[C@H](CCCCN)NC(=O)[C@@H]3CSSC[C@@H](C(=O)N[C@H](C(=O)N4CCC[C@H]4C(=O)N[C@@H](CCCCN)C(=O)O)[C@@H](C)O)NC(=O)[C@H](Cc4c[nH]cn4)NC(=O)[C@H](CSSC[C@H](NC(=O)[C@H](CCC(N)=O)NC(=O)[C@H](CCCNC(=N)N)NC(=O)[C@H](CO)NC1=O)C(=O)N[C@@H](CC(C)C)C(=O)N[C@@H](CCC(=O)O)C(=O)N1CCC[C@H]1C(=O)N3)NC(=O)[C@H](CCCCN)NC(=O)CNC(=O)[C@H](CC(N)=O)NC(=O)[C@H](CCSC)NC2=O` [K9A] (H-GVIINVKCAISRQCLEPCKKAGMRFGKCMNGKCHCTPK-OH; disulfide 8-28, 14-33, 18-35), the results for the IC50 in assay [1] (setting [3]) and in assay [2] (setting [4]) were 71.1 pM and 79.6 pM, respectively.

`CC[C@H](C)[C@@H]1NC(=O)[C@H](CCCCN)NC(=O)[C@@H](NC(=O)[C@H](CCCCN)NC(=O)[C@@H](NC(=O)[C@H](CC(N)=O)NC(=O)[C@@H](NC(=O)[C@@H](NC(=O)[C@@H](NC(=O)CN)C(C)C)[C@@H](C)CC)[C@@H](C)CC)C(C)C)CSSC[C@@H]2NC(=O)[C@H](CCCCN)NC(=O)CNC(=O)[C@H](Cc3ccccc3)NC(=O)[C@H](CCCNC(=N)N)NC(=O)[C@H](CCSC)NC(=O)CNC(=O)[C@H](C)NC(=O)[C@H](CCCCN)NC(=O)[C@H](CCCCN)NC(=O)[C@@H]3CSSC[C@@H](C(=O)N[C@H](C(=O)N4CCC[C@H]4C(=O)N[C@@H](CCCCN)C(=O)O)[C@@H](C)O)NC(=O)[C@H](Cc4c[nH]cn4)NC(=O)[C@H](CSSC[C@H](NC(=O)[C@H](CCC(N)=O)NC(=O)[C@H](CCCNC(=N)N)NC(=O)[C@H](CO)NC1=O)C(=O)N[C@@H](CC(C)C)C(=O)N[C@@H](CCC(=O)O)C(=O)N[C@@H](Cc1cccc4ccccc14)C(=O)N3)NC(=O)[C@H](CCCCN)NC(=O)CNC(=O)[C@H](CC(N)=O)NC(=O)[C@H](CCSC)NC2=O` [P17Nal] (H-GVIINVKCKISRQCLE[1Nal]CKKAGMRFGKCMNGKCHCTPK-OH; disulfide 8-28, 14-33, 18-35): the IC50 in assay [1] (setting [3]) turned out to be 357 pM; in assay [2] (setting [4]) it was 193 pM.

Regarding `CC[C@H](C)[C@@H]1NC(=O)[C@H](CCCNC(=N)N)NC(=O)[C@@H](NC(=O)[C@H](CCCCN)NC(=O)[C@@H](NC(=O)[C@H](CC(N)=O)NC(=O)[C@@H](NC(=O)[C@@H](NC(=O)[C@@H](NC(=O)CN)C(C)C)[C@@H](C)CC)[C@@H](C)CC)C(C)C)CSSC[C@@H]2NC(=O)[C@H](CCCCN)NC(=O)CNC(=O)[C@H](Cc3ccccc3)NC(=O)[C@H](CCCNC(=N)N)NC(=O)[C@H](CCSC)NC(=O)CNC(=O)[C@H](C)NC(=O)[C@H](CCCCN)NC(=O)[C@H](CCCCN)NC(=O)[C@@H]3CSSC[C@@H](C(=O)N[C@H](C(=O)N4CCC[C@H]4C(=O)N[C@@H](CCCCN)C(=O)O)[C@@H](C)O)NC(=O)[C@H](Cc4c[nH]cn4)NC(=O)[C@H](CSSC[C@H](NC(=O)[C@H](CCC(N)=O)NC(=O)[C@H](CCCNC(=N)N)NC(=O)[C@H](CO)NC1=O)C(=O)N[C@@H](CC(C)C)C(=O)N[C@@H](CCC(=O)O)C(=O)N1CCC[C@H]1C(=O)N3)NC(=O)[C@H](CCCCN)NC(=O)CNC(=O)[C@H](CC(N)=O)NC(=O)[C@H](CCSC)NC2=O` [K9R] (H-GVIINVKCRISRQCLEPCKKAGMRFGKCMNGKCHCTPK-OH; disulfide 8-28, 14-33, 18-35), the IC50 in assay [1] (setting [3]) is 77 pM; in assay [2] (setting [4]), 107 pM.

For the molecule `CC[C@H](C)[C@@H]1NC(=O)[C@H](CCCCN)NC(=O)[C@@H](NC(=O)[C@H](CCCCN)NC(=O)[C@@H](NC(=O)[C@H](CC(N)=O)NC(=O)[C@@H](NC(=O)[C@@H](NC(=O)[C@@H](NC(=O)[C@H](C)N)C(C)C)[C@@H](C)CC)[C@@H](C)CC)C(C)C)CSSC[C@@H]2NC(=O)[C@H](CCCCN)NC(=O)CNC(=O)[C@H](Cc3ccccc3)NC(=O)[C@H](CCCNC(=N)N)NC(=O)[C@H](CCSC)NC(=O)CNC(=O)[C@H](C)NC(=O)[C@H](CCCCN)NC(=O)[C@H](CCCCN)NC(=O)[C@@H]3CSSC[C@@H](C(=O)N[C@H](C(=O)N4CCC[C@H]4C(=O)N[C@@H](CCCCN)C(=O)O)[C@@H](C)O)NC(=O)[C@H](Cc4c[nH]cn4)NC(=O)[C@H](CSSC[C@H](NC(=O)[C@H](CCC(N)=O)NC(=O)[C@H](CCCNC(=N)N)NC(=O)[C@H](CO)NC1=O)C(=O)N[C@@H](CC(C)C)C(=O)N[C@@H](CCC(=O)O)C(=O)N1CCC[C@H]1C(=O)N3)NC(=O)[C@H](CCCCN)NC(=O)CNC(=O)[C@H](CC(N)=O)NC(=O)[C@H](CCSC)NC2=O` [G1A] (H-AVIINVKCKISRQCLEPCKKAGMRFGKCMNGKCHCTPK-OH; disulfide 8-28, 14-33, 18-35), the IC50 is 119 pM in assay [1] (setting [3]) and 122 pM in assay [2] (setting [4]).

Regarding `CC[C@H](C)[C@@H]1NC(=O)[C@H](CCCCN)NC(=O)[C@@H](NC(=O)[C@H](CCCCN)NC(=O)[C@@H](NC(=O)[C@H](CC(N)=O)NC(=O)[C@@H](NC(=O)[C@H](CCC(=O)O)NC(=O)[C@@H](NC(=O)CN)C(C)C)[C@@H](C)CC)C(C)C)CSSC[C@@H]2NC(=O)[C@H](CCCCN)NC(=O)CNC(=O)[C@H](Cc3ccccc3)NC(=O)[C@H](CCCNC(=N)N)NC(=O)[C@H](CCSC)NC(=O)CNC(=O)[C@H](C)NC(=O)[C@H](CCCCN)NC(=O)[C@H](CCCCN)NC(=O)[C@@H]3CSSC[C@@H](C(=O)N[C@H](C(=O)N4CCC[C@H]4C(=O)N[C@@H](CCCCN)C(=O)O)[C@@H](C)O)NC(=O)[C@H](Cc4c[nH]cn4)NC(=O)[C@H](CSSC[C@H](NC(=O)[C@H](CCC(N)=O)NC(=O)[C@H](CCCNC(=N)N)NC(=O)[C@H](CO)NC1=O)C(=O)N[C@@H](CC(C)C)C(=O)N[C@@H](CCC(=O)O)C(=O)N1CCC[C@H]1C(=O)N3)NC(=O)[C@H](CCCCN)NC(=O)CNC(=O)[C@H](CC(N)=O)NC(=O)[C@H](CCSC)NC2=O` [I3E] (H-GVEINVKCKISRQCLEPCKKAGMRFGKCMNGKCHCTPK-OH; disulfide 8-28, 14-33, 18-35), the values for the IC50 in assay [1] (setting [3]) and in assay [2] (setting [4]) were 160 pM and 120 pM, respectively.

As to `CC[C@H](C)[C@@H]1NC(=O)[C@H](CCCCN)NC(=O)[C@@H](NC(=O)[C@H](CCCCN)NC(=O)[C@@H](NC(=O)[C@H](CC(N)=O)NC(=O)[C@@H](NC(=O)[C@@H](NC(=O)[C@@H](NC(=O)CN)C(C)C)[C@@H](C)CC)[C@@H](C)CC)C(C)C)CSSC[C@@H]2NC(=O)[C@H](CCCCN)NC(=O)CNC(=O)[C@H](Cc3ccccc3)NC(=O)[C@H](CCCNC(=N)N)NC(=O)[C@H](CCSC)NC(=O)CNC(=O)[C@H](C)NC(=O)[C@H](Cc3cccc4ccccc34)NC(=O)[C@H](CCCCN)NC(=O)[C@@H]3CSSC[C@@H](C(=O)N[C@H](C(=O)N4CCC[C@H]4C(=O)N[C@@H](CCCCN)C(=O)O)[C@@H](C)O)NC(=O)[C@H](Cc4c[nH]cn4)NC(=O)[C@H](CSSC[C@H](NC(=O)[C@H](CCC(N)=O)NC(=O)[C@H](CCCNC(=N)N)NC(=O)[C@H](CO)NC1=O)C(=O)N[C@@H](CC(C)C)C(=O)N[C@@H](CCC(=O)O)C(=O)N1CCC[C@H]1C(=O)N3)NC(=O)[C@H](CCCCN)NC(=O)CNC(=O)[C@H](CC(N)=O)NC(=O)[C@H](CCSC)NC2=O` [K20Nal] (H-GVIINVKCKISRQCLEPCK[1Nal]AGMRFGKCMNGKCHCTPK-OH; disulfide 8-28, 14-33, 18-35), the IC50 in assay [1] (setting [3]) was determined as 125 pM; in assay [2] (setting [4]), 74 pM.
